From patent publication EP0053015A1, “1-Phenylthio-2-aminopropane derivatives, their production and use” (Takeda Chemical Industries, Ltd., priority 1980, dated 1982)
Counter-ions that a name gives are not always drawn. Like-named read-outs stand apart in the source and are kept apart here.

Assays:
Format in all cases: in vivo
[1] = Suppression of food intake in mice; conditions: Mus musculus, male ICR mice, 50 mg/kg oral, given 0.5 hour before feeding, food intake of control animals = 100%, (NS) = not statistically significant
Procedure: Male ICR mice, 7 weeks old, were acclimatised to six-hours-a-day feeding (CE-2 powder, Clea Japan) for 7 days and those animals showing a constant food intake were used in groups of 6 individuals. Each test compound was dissolved in a 5% aqueous solution of gum arabic and orally administered to mice at a dose level of 50 mg/kg as compound (I) at 0.5 hour before feeding on the 8th day. Control animals received a 5% solution of gum arabic only. Each figure in the table is the percent food intake with the food intake of control animals being taken as 100%.
In the table, the figures accompanied by NS in parentheses mean that the difference from control was not statistically significant. All other figures were significant at from P<0.02 to P<0.001.

[2] = Inventors' study of antiobesity, antidiabetic and anorectic effect of prior-art compounds; conditions: according to the inventors' study; result in words
From the text: South African Patent No. 67/3108 describes the anti- depressive activity of 1-(4-chlorophenylthio)-2-aminopropane of the formula: [drawing 8] but this patent also says nothing about antiobesity or antidiabetic action. […] In contrast, the compounds of this invention exert strong and long-lasting antiobesity and antidiabetic effects because of their having the particular substituent (halogen) at the particular (para) position of the benzene ring and having the particular secondary amine-type structure.

[3] = Suppression of food intake in rats; conditions: male Sprague-Dawley rats fasted for 24 hours, 20 mg/kg by oral gavage, food given after 0.5 hour; control = 100%; ** P<0.01, * P<0.05
Procedure: Male 7-week-old rats of Sprague-Dawley strain were fasted for 24 hours and assigned to groups of 6 animals. A solution of .20 mg/kg of each test compound in distilled water was administered by oral gavage and after 0.5 hour, food (CE-2 powder) was given. The food intake in each group was measured at 1 hour and 2 hours thereafter and the results were compared with the food intake of control animals given distilled water only. The figures in the table denote the food intake percents, with the food intake of control animals being taken as 100%. By the term "gavage" is meant compulsory feeding.

[4] = test system: fatty acid synthesis; test: Inhibition of fatty acid synthesis (glucose-U-14C incorporation into fatty acid fractions); conditions: Rattus norvegicus, Sprague-Dawley rats, 20 mg/kg oral, glucose-U-14C 30 minutes later, sacrificed after 60 minutes, versus distilled water control
Procedure: Male 7-week-old Sprague-Dawley rats were acclimatised to 2-hours-a-day feeding (CE-2 powder, Clea Japan) for 10 days and assigned to groups of 5 animals. The animals were orally given 20 mg/kg of l-(4-chlorophenylthio)-2-methylaminopropane fumarate as dissolved in distilled water, and,30 minutes thereafter, glucose-U-^14C (85 pCi/3 g/kg) was orally administered. After 60 minutes, each animal was sacrificed and the radioactivities incorporated into the fatty acid fractions of the liver and the epididymal adipose tissues were determined.

[5] = 1 h, read-out: Food intake (%) 1 hour after administration
[6] = read-out: Food intake (%) 0.5 hour after administration

Q: For `CNC(C)CSc1ccc(Cl)c(Cl)c1` (racemic) [Example 7, l-(3,4-dichlorophenylthio)-2-methylamino-propane], which response vs control in vivo at 50 mg/kg [1, 5] is on record?
A: Its response vs control in vivo at 50 mg/kg is 63.2%.

Q: What about the response vs control in vivo at 50 mg/kg [1, 6] of the same compound?
A: The response vs control in vivo at 50 mg/kg was 54.9%.

Q: What does the source list for `CC(N)CSc1ccc(Cl)cc1` (centres unmarked) [1-(4-chlorophenylthio)-2-aminopropane, reference compound]?
A: response vs control in vivo at 50 mg/kg [1, 5]: 85.5%; response vs control in vivo at 50 mg/kg [1, 6]: 69.5%; anorectic effect [2]: only a weak transient anorectic effect

Q: What does the source list for `CNC(C)CSc1ccccc1` (centres unmarked) [1-phenylthio-2-methyl-aminopropane, reference compound]?
A: response vs control in vivo at 50 mg/kg [1, 5]: 112%; response vs control in vivo at 50 mg/kg [1, 6]: 106%

Q: Which response vs control in vivo at 50 mg/kg [1, 5] does the source give for `CNC(C)CSc1ccc(Cl)cc1.O=C(O)/C=C/C(=O)O` (centres unmarked) [Example 1, 1-(4-chlorophenylthio)-2-methylaminopropane fumarate] here?
A: Its response vs control in vivo at 50 mg/kg is 55.2%.

Q: And the response vs control in vivo at 50 mg/kg [1, 6]?
A: Its response vs control in vivo at 50 mg/kg is 43.2%.

Q: And the “Food intake (%) 1 hour after administration” value [3]?
A: The value was 43.9* %.

Q: And the “Food intake (%) 2 hours after administration” value [3]?
A: Its value is 61.9** %.

Q: What about the inhibition at 20 mg/kg ([4]; adipose tissues, read-out: relative inhibition rate, radioactivity incorporated into the fatty acid fraction of the epididymal adipose tissues) of the same compound?
A: Its inhibition at 20 mg/kg is 58.8%.

Q: What about the inhibition at 20 mg/kg ([4]; liver, read-out: relative inhibition rate, radioactivity incorporated into the fatty acid fraction of the liver) of the same compound?
A: Its inhibition at 20 mg/kg is 46.6%.

Q: Which response vs control in vivo at 50 mg/kg [1, 5] does the source give for `CCNC(C)CSc1ccc(Cl)cc1` (centres unmarked) [Example 3, 1-(4-chlorophenylthio)-2-ethylaminopropane fumarate] here?
A: The response vs control in vivo at 50 mg/kg was 69.4%.

Q: And the response vs control in vivo at 50 mg/kg [1, 6]?
A: Its response vs control in vivo at 50 mg/kg is 40.7%.

Q: Which response vs control in vivo at 50 mg/kg [1, 5] does the source give for `CC(CSc1ccc(Cl)cc1)NCCO` (centres unmarked) [Example 4, 1-(4-chlorophenylthio)-2-(2-hydroxyethylamino)propane fumarate] here?
A: Its response vs control in vivo at 50 mg/kg is 67.6%.

Q: And the response vs control in vivo at 50 mg/kg [1, 6]?
A: Its response vs control in vivo at 50 mg/kg is 65.9%.

Q: Which results are given for `CNC(C)CSc1ccc(F)cc1` (centres unmarked) [Example 5, 1-(4-fluorophenylthio)-2-methylaminopropane]?
A: response vs control in vivo at 50 mg/kg [1, 5]: 66.5%; response vs control in vivo at 50 mg/kg [1, 6]: 57.9%

Q: What does the source list for `CNC(C)CSc1ccc(Br)cc1` (centres unmarked) [Example 6, 1-(4-bromophenylthio)-2-methylamino-propane]?
A: response vs control in vivo at 50 mg/kg [1, 5]: 72.1%; response vs control in vivo at 50 mg/kg [1, 6]: 70.8%

Q: For `CN[C@@H](C)CSc1ccc(Cl)cc1` [Example 8, (S)-l-(4-chlorophenylthio)-2-methylaminopropane fumarate], which “Food intake (%) 1 hour after administration” value [3] is on record?
A: The value was 38.8** %.

Q: And the “Food intake (%) 2 hours after administration” value [3]?
A: Its value is 56.1** %.
